# In a melting point compilation (Tetko et al.; mined from patent text by program, amines drawn as free bases though some values may be those of a salt):
row,Compound,melting point [°C]
1,COC(=O)c1ccc(Cl)cc1C(=O)c1ccccc1F,115 to 116
2,N#Cc1ccc(CN2CC=C(/C=C/c3ccccc3)CC2)cc1,155 to 157
3,O=[N+]([O-])c1ccc(Oc2c(Cl)cc(C(F)(F)F)cc2Cl)cc1CO,143
4,N#CCC1=C(n2nc(-c3c(-c4ccccc4)nn4ccccc34)ccc2=O)CCCC1,74 to 76
5,COc1cccc(CN2CCC(n3c(C)c(-c4ccccc4)[nH]c3=O)CC2)c1,227 to 228
6,CN(CC(C)(C)NCc1c(CO)ccc(OCc2ccccc2)c1CO)c1ccccc1,93 to 98
7,CNc1c(F)cc2c(=O)c(C(=O)O)cn(-c3cc(N)c(F)cc3F)c2c1OC,225 to 227
8,CC(C)(O)c1ccc(CNC(=O)c2cccnc2Oc2ccc3nonc3c2)cc1,149 to 151
9,Nc1c(Br)cc(F)cc1[N+](=O)[O-],71.5 to 72.5
10,CC(C)(C)CC(=O)c1ccc(O)c(Cl)c1Cl,156 to 158
11,Cc1nc(N2C[C@@H](C)N(Cc3ccc(F)cc3)C2=O)sc1C(=O)NCc1cc(F)cc(F)c1,159 to 160
12,NS(=O)(=O)c1cc(C(=O)O)cc(SCc2ccsc2)c1-c1ccccc1,92 to 94
13,COc1ccc2c(c1)c(-c1ccccc1)nc(=O)n2CC1CC1,114 to 115
14,COc1cc(Oc2ccc(S(C)(=O)=O)nc2)cc2cc(C3=NCC(CC(N)=O)S3)[nH]c12 (stereo not given),225 to 227
15,CCC(CC)c1ccc(Cl)c2nc3n(c12)CCN3C(=O)c1ccc(Cl)nc1,205 to 207
16,CCOC(=O)C1=C(O)c2cc3cc(OC)ccc3n2CC1,157 to 160
17,COC(=O)c1cc2c(Oc3ccc(Cl)cc3)cncc2s1,99 to 100
18,CC1(C)CC(c2ccc[nH]c2=O)c2cc(C#N)ccc2O1 (stereo not given),174 to 176
19,CCOCc1nc2c(N)nc3cc(-c4cccnc4)ccc3c2n1Cc1ccc(CN)cc1,211 to 214
20,Cc1cc(S(=O)(=O)NC2CCCCC2)c2c(C)ccc(C(C)C)cc1-2,108 to 109
21,O=C1CCC(N2Cc3c(CNC(=O)NCc4ccccc4)cccc3C2=O)C(=O)N1 (stereo not given),304 to 306
22,Cc1cc(C)c(C)c(COc2cccc(-c3c(-c4ccccc4)coc3C(=O)NNC(=O)c3ccc(O)c(C#N)c3)c2)c1C,207 to 209
23,CC(C)CN(C[C@H](O)COc1cccc2[nH]c3ccccc3c12)c1ccc(OC(C)(C)C(N)=O)cc1,84 to 86
24,CC(=O)n1ncc2c(O)cc(C)cc21,191 to 192

row,Compound,melting point [°C]
1,CNC(=O)Nc1scc(C(C)C)c1C#N,179 to 181
2,Cc1c(C(=O)O)c(=O)cc(-c2ccccc2)n1C,220 to 225
3,Cc1nc(S(=O)(=O)Cc2ccccc2)nc(C)c1Br,138 to 139
4,Cc1cc(SC2=C(O)CC(CCc3cccc(O)c3)(CCc3cccc(O)c3)OC2=O)c(C(C)(C)C)cc1CO,92 to 94
5,Cc1ccc(C#N)c(OC(C)(C)C=O)c1,57 to 59
6,CCCC1=C(C#N)C(c2ccccc2C)c2c[nH]nc2N1 (stereo not given),230
7,CCCCCCCCCCCCc1c[nH]cn1,69 to 71
8,NCc1ccc(N2CCC2)cc1,58 to 60
9,Cc1cccc2c1nc(-c1ccncc1)n2Cc1c(F)cccc1F,171 to 172
10,Cn1nc(-c2ccccc2)nc1-c1ccccn1,106 to 108
11,N#CC1CCN1C(c1ccccc1)c1ccccc1 (stereo not given),104 to 105
12,CN(C)CCc1cn(C(=O)c2ccccc2)c2ccc(O)cc12,154 to 156
13,COc1cc(CNc2c(NC(C)(C)C)c(=O)c2=O)cc(OC)c1,222 to 223
14,COc1ccc2cc(C(=O)C(C)(C)c3ccccc3)oc2c1,93 to 95
15,COc1cc(C(C)=O)ccc1OCCCN1CCC(C(O)(c2ccc(F)c(F)c2)c2ccc(F)c(F)c2)CC1,143 to 146
16,CC(=O)NCCCC(=O)c1ccc(Cl)cc1C(CC(=O)O)c1ccccc1 (stereo not given),114 to 116
17,O=C1c2cc(OCc3ccccc3)ccc2OCC1Cn1ccnc1 (stereo not given),108 to 110
18,CCOC(=O)COc1ccc(-c2nc(-c3ccc(C)cc3)nc(-c3ccc(C)cc3)n2)c(O)c1,166 to 167
19,COc1ccc(N2CCN(c3cc4c(cc3-c3cccnc3)OC(C)(C)C4)CC2)cc1,177 to 180
20,CCCCCCCCCCCCCC(=O)Oc1ccc([N+](=O)[O-])cc1OC(=O)CCCCCCCCCCCCC,58 to 60
21,NS(=O)(=O)c1cncc(-c2cn(-c3cc(C(F)(F)F)cc(-c4ccc(C(F)(F)F)cc4)n3)cn2)c1,> 250
22,CC(C)(C)OC(=O)C1CC(c2ccc(-c3ccc(N4C[C@H](Cn5ccnn5)OC4=O)cc3F)cn2)=NO1 (stereo not given in full),165 to 168
23,Cc1c(NC(=O)NCCCO)c(C)c2c(c1-c1ccccc1)OCC2c1ccc(C(C)C)cc1 (stereo not given),145 to 146
24,Cc1ncn(Nc2cccc(Cl)c2)c1-c1cccc(Cl)c1,168

row,Compound,melting point [°C]
1,O=C(C=Cc1ccccn1)N1CCc2c([nH]c3ccccc23)C1c1ccc2c(c1)OCO2 (stereo not given),135 to 141
2,O=C(c1ccccc1)c1cc2cc(Cl)ncc2[nH]1,194 to 197
3,O=c1oc(-c2ccccc2)cc(O)c1C(CC1CC1)SC1CCCC1 (stereo not given),75 to 80
4,CC(=O)NNc1ccc(N=C=S)cc1,172 to 174
5,Cc1cc(Cl)ccc1OCC(=O)N1Cc2cccn2Cc2ccccc21,166 to 167
6,CC(C)Oc1ccc(OCc2ccccc2)cc1-c1nc2cc(CNCC(=O)O)cnc2[nH]1,182 to 184
7,COc1c(N2CC(O)C2)c(F)cc2c(=O)c(C(=O)O)cn(C3CC3)c12,246 to 250
8,c1ccc2c(c1)Cc1c(-c3ccc(OCCN4CCOCC4)cc3)n[nH]c1-2,175 to 176
9,CC(=O)N(CCC(CCN1CCCCC1)(C(N)=O)c1ccccc1Cl)C(C)C (stereo not given),141 to 147
10,CCCCOc1cc(CCS(=O)(=O)NC(=O)OC(C)C)n(Cc2ccc(Cl)cc2Cl)n1,120 to 121
11,O=C(O)Cc1ccc(-c2nc3ccccc3o2)cc1F,213 to 216
12,Cc1c(NC(=O)c2ccc(CC(=O)C3CCOC3)cc2)ccc2cc(CN3CCCC3)cnc12 (stereo not given),142 to 143
13,CCOC(=O)C(=CNc1nnc(C)s1)C(=O)c1cc(F)c(Cl)nc1Cl,142 to 152
14,"COCN1C(C)=C(C(=O)O)C(c2cccc(Cl)c2Cl)C(C(=O)OCOC(=O)C(C)(C)C)=C1C (single isomer, unassigned; (+))",89 to 90
15,Cc1c(Cc2ccc(C(C)C)cc2)c2c(c(C)c1NC(=O)CC(C)(C)C)C(N(C)C)C(C)(C)O2 (stereo not given),138 to 139
16,CC(C)C(N)=C(C#N)C(N)=S,112 to 114
17,CN1C2CCCC1CC(NC(=O)c1cccc3oc(-c4ccc(F)cc4)nc13)C2 (stereo not given),197 to 199
18,COc1ccc(Nc2cccc(Cl)c2N)cc1,65 to 66
19,Cn1c([N+](=O)[O-])cnc1C(N)=S,148 to 150
20,CC(=O)OC1CSC(Oc2ccc(-c3cncc(Cl)c3)nc2)C(OC(C)=O)C1OC(C)=O (stereo not given),203 to 205
21,O=Cc1c(O)cccc1OCc1ccc(C(=O)O)cc1,239 to 240
22,O=C(O)C1=CS[C@@H]2/C(=C\c3ccc4nc5n(c4c3)CCS5)C(=O)N12,> 250
